Where two headings read alike, the source gives them in different places. Where a SMILES comes first, the peptide text is derived from it. [ ]: non-standard residue; d: D form. Aib = CC(C)(N)C(=O)O
What was measured:
[1] = system: Mouse monocyte/macrophage cell line, RAW 264.7; experiment: Cholesterol efflux assay (3H-cholesterol, macrophage cell line); format: cell-based; details: RAW 264.7, 4 hrs incubation, 0.1% human serum albumin; for 4 h Cholesterol Efflux Emax: ABCA1-mediated efflux
human GLP-1 receptor = human GLP-1 receptor (Homo sapiens, UniProt P43220); experiment: Functional GLP-1 receptor assay, in vitro potency (CRE luciferase; whole cells); format: cell-based
Sequence of human GLP-1 receptor (P43220 24-463): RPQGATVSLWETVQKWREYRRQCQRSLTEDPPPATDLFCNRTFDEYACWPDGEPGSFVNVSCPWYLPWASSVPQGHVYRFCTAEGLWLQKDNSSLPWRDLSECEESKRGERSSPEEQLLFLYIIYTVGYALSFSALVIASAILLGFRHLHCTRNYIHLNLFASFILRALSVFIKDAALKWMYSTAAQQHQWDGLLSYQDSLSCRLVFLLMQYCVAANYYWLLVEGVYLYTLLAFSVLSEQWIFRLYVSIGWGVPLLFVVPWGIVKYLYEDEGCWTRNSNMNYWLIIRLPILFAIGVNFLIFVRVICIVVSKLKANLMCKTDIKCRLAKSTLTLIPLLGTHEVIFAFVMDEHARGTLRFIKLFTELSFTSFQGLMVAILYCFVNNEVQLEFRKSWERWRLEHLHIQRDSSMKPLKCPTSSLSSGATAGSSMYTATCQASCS

[2] = BHK cells expressing human GLP-1 receptor, 0% HSA, read-out: GLP1R CRE luc 0% HSA EC50 Mean Value
[3] = GLP1R CRE luc 1% HSA EC50 Mean Value, BHK cells expressing human GLP-1 receptor, 1% HSA

Compound	EC50 ([1]; read-out: 4 h Cholesterol Efflux EC50, ABCA1-mediated efflux (CPT-cAMP induced minus non-induced))	EC50 (human GLP-1 receptor; GLP1R CRE luc 1% HSA EC50 Mean Value)	4 h Cholesterol Efflux Emax [1]	EC50 (human GLP-1 receptor; [2])	EC50 (human GLP-1 receptor; [3])
CC[C@H](C)[C@H](NC(=O)[C@H](Cc1ccccc1)NC(=O)[C@H](CCC(=O)O)NC(=O)[C@H](CCCCN)NC(=O)[C@@H](NC(=O)[C@H](C)NC(=O)[C@H](CCC(=O)O)NC(=O)CNC(=O)[C@H](CCC(=O)O)NC(=O)[C@H](CC(C)C)NC(=O)[C@H](Cc1ccc(O)cc1)NC(=O)[C@H](CO)NC(=O)[C@H](CO)NC(=O)[C@@H](NC(=O)[C@H](CC(=O)O)NC(=O)[C@H](CO)NC(=O)[C@@H](NC(=O)[C@H](CC(C)C)NC(=O)[C@@H](NC(=O)CNC(=O)[C@H](CC(=O)O)NC(=O)[C@H](C)NC(=O)[C@@H](N)Cc1c[nH]cn1)[C@@H](C)O)[C@@H](C)O)[C@@H](C)CC)C(C)C)C(=O)N[C@@H](C)C(=O)N[C@@H](Cc1c[nH]c2ccccc12)C(=O)N[C@@H](CC(C)C)C(=O)N[C@H](C(=O)N[C@@H](CCC(=O)O)C(=O)N[C@@H](CCCCN)C(=O)NC(C)(C)C(=O)N[C@@H](CCCCN)C(=O)N[C@@H](CCC(=O)O)C(=O)N[C@@H](Cc1ccccc1)C(=O)N[C@@H](CC(C)C)C(N)=O)C(C)C [Compound 14, [Asp9,Leu12,Ile16,Glu23,Val25,Glu34,Lys35,Aib36,Lys37]-GLP-1-(7-37)-peptidyl-Glu-Phe-Leu amide] (H-HADGTLTSDISSYLEGEAVKEFIAWLVEK[Aib]KEFL-NH2; N-terminus assumed)	300 nM	0.062 nM	–	–	–
CC[C@H](C)[C@H](NC(=O)[C@H](Cc1ccccc1)NC(=O)[C@H](CCC(=O)O)NC(=O)[C@H](CCCCN)NC(=O)[C@@H](NC(=O)[C@H](C)NC(=O)[C@H](CCC(=O)O)NC(=O)[C@H](CCC(=O)O)NC(=O)[C@H](CCC(=O)O)NC(=O)[C@H](CC(C)C)NC(=O)[C@H](Cc1ccc(O)cc1)NC(=O)[C@H](CO)NC(=O)[C@H](CO)NC(=O)[C@@H](NC(=O)[C@H](CC(=O)O)NC(=O)[C@H](CO)NC(=O)[C@@H](NC(=O)[C@H](Cc1ccccc1)NC(=O)[C@@H](NC(=O)CNC(=O)[C@H](CCC(=O)O)NC(=O)C(C)(C)NC(=O)[C@@H](N)Cc1c[nH]cn1)[C@@H](C)O)[C@@H](C)O)C(C)C)C(C)C)C(=O)N[C@@H](C)C(=O)N[C@@H](Cc1c[nH]c2ccccc12)C(=O)N[C@@H](CC(C)C)C(=O)N[C@H](C(=O)N[C@@H](CCC(=O)O)C(=O)N[C@@H](CCCCN)C(=O)N[C@H](C(=O)N[C@@H](CCCCN)C(=O)N[C@@H](CCC(=O)O)C(=O)N[C@@H](Cc1ccccc1)C(=O)N[C@@H](CC(C)C)C(N)=O)C(C)C)C(C)C [Compound 137, [Aib8,Glu22,Glu23,Val25,Glu34,Lys35,Val36,Lys37]-GLP-1-(7-37)-peptidyl-Glu-Phe-Leu amide] (H-H[Aib]EGTFTSDVSSYLEEEAVKEFIAWLVEKVKEFL-NH2)	–	–	108%	0.116 nM	0.034 nM
CC[C@H](C)[C@H](NC(=O)[C@H](Cc1ccccc1)NC(=O)[C@H](CCC(=O)O)NC(=O)[C@H](CCC(N)=O)NC(=O)[C@@H](NC(=O)[C@H](C)NC(=O)[C@H](CCC(=O)O)NC(=O)CNC(=O)[C@H](CCC(=O)O)NC(=O)[C@H](CC(C)C)NC(=O)[C@H](Cc1ccc(O)cc1)NC(=O)[C@H](CO)NC(=O)[C@H](CO)NC(=O)[C@@H](NC(=O)[C@H](CC(=O)O)NC(=O)[C@H](CO)NC(=O)[C@@H](NC(=O)[C@H](Cc1ccccc1)NC(=O)[C@@H](NC(=O)CNC(=O)[C@H](CCC(=O)O)NC(=O)C(C)(C)NC(=O)[C@@H](N)Cc1c[nH]cn1)[C@@H](C)O)[C@@H](C)O)C(C)C)C(C)C)C(=O)N[C@@H](C)C(=O)N[C@@H](Cc1c[nH]c2ccccc12)C(=O)N[C@@H](CC(C)C)C(=O)N[C@H](C(=O)N[C@@H](CCC(=O)O)C(=O)N[C@@H](C)C(=O)N[C@H](C(=O)N[C@@H](C)C(=O)N[C@@H](CCC(=O)O)C(=O)N[C@@H](Cc1ccccc1)C(=O)N[C@@H](CC(C)C)C(N)=O)C(C)C)C(C)C [Compound 94] (H-H[Aib]EGTFTSDVSSYLEGEAVQEFIAWLVEAVAEFL-NH2)	–	–	74%	–	0.273 nM
CC[C@H](C)[C@H](NC(=O)[C@H](Cc1ccccc1)NC(=O)[C@H](CCC(=O)O)NC(=O)[C@H](CCCCN)NC(=O)[C@H](C)NC(=O)[C@H](C)NC(=O)[C@H](CCC(=O)O)NC(=O)[C@H](CCC(=O)O)NC(=O)[C@H](CCC(=O)O)NC(=O)[C@H](CC(C)C)NC(=O)[C@H](Cc1ccc(O)cc1)NC(=O)[C@H](CCCCN)NC(=O)[C@H](CO)NC(=O)[C@H](Cc1ccc(O)cc1)NC(=O)[C@H](CC(=O)O)NC(=O)[C@H](CO)NC(=O)[C@@H](NC(=O)[C@H](Cc1ccccc1)NC(=O)[C@@H](NC(=O)CNC(=O)[C@H](Cc1c[nH]cn1)NC(=O)C(C)(C)NC(=O)[C@@H](N)Cc1c[nH]cn1)[C@@H](C)O)[C@@H](C)O)C(=O)N[C@@H](C)C(=O)N[C@@H](Cc1c[nH]c2ccccc12)C(=O)N[C@@H](CC(C)C)C(=O)N[C@@H](CC(C)C)C(=O)N[C@@H](CCC(=O)O)C(=O)N[C@@H](CCCCN)C(=O)NC(C)(C)C(=O)N[C@@H](CCCCN)C(=O)N[C@@H](CCC(=O)O)C(=O)N[C@@H](Cc1ccccc1)C(=O)N[C@@H](CC(C)C)C(N)=O [Compound 55] (H-H[Aib]HGTFTSDYSKYLEEEAAKEFIAWLLEK[Aib]KEFL-NH2)	–	–	96%	0.08 nM	0.049 nM
CC(C)C[C@H](NC(=O)[C@H](Cc1ccccc1)NC(=O)[C@H](CCC(=O)O)NC(=O)[C@H](CCCCN)NC(=O)C(C)(C)NC(=O)[C@H](CCCCN)NC(=O)[C@H](CCC(=O)O)NC(=O)[C@H](CC(C)C)NC(=O)[C@H](CC(C)C)NC(=O)[C@H](Cc1c[nH]c2ccccc12)NC(=O)[C@H](CCC(N)=O)NC(=O)[C@@H](NC(=O)[C@H](Cc1ccccc1)NC(=O)[C@H](CCC(=O)O)NC(=O)[C@H](CCCNC(=N)N)NC(=O)[C@H](C)NC(=O)[C@H](CCCNC(=N)N)NC(=O)[C@H](CCCCN)NC(=O)CNC(=O)[C@H](CC(=O)O)NC(=O)[C@H](CC(C)C)NC(=O)[C@H](Cc1ccc(O)cc1)NC(=O)[C@H](CCCCN)NC(=O)[C@H](CO)NC(=O)[C@H](Cc1ccc(O)cc1)NC(=O)[C@H](CC(=O)O)NC(=O)[C@H](CO)NC(=O)[C@@H](NC(=O)[C@H](Cc1ccccc1)NC(=O)[C@@H](NC(=O)CNC(=O)[C@H](CCC(N)=O)NC(=O)C(C)(C)NC(=O)[C@@H](N)Cc1c[nH]cn1)[C@@H](C)O)[C@@H](C)O)C(C)C)C(N)=O [Compound 25] (H-H[Aib]QGTFTSDYSKYLDGKRAREFVQWLLEK[Aib]KEFL-NH2)	–	–	68%	0.591 nM	0.297 nM
CC[C@H](C)[C@H](NC(=O)[C@H](Cc1ccccc1)NC(=O)[C@H](CCC(=O)O)NC(=O)[C@H](CCCCN)NC(=O)[C@@H](NC(=O)[C@H](C)NC(=O)[C@H](CCC(=O)O)NC(=O)CNC(=O)[C@H](CCC(=O)O)NC(=O)[C@H](CC(C)C)NC(=O)[C@H](Cc1ccc(O)cc1)NC(=O)[C@H](CO)NC(=O)[C@H](CO)NC(=O)[C@@H](NC(=O)[C@H](CC(=O)O)NC(=O)[C@H](CO)NC(=O)[C@@H](NC(=O)[C@H](Cc1ccccc1)NC(=O)[C@@H](NC(=O)CNC(=O)[C@H](CCC(=O)O)NC(=O)C(C)(C)NC(=O)[C@@H](N)Cc1c[nH]cn1)[C@@H](C)O)[C@@H](C)O)C(C)C)C(C)C)C(=O)N[C@@H](C)C(=O)N[C@@H](Cc1c[nH]c2ccccc12)C(=O)N[C@@H](CC(C)C)C(=O)N[C@H](C(=O)N[C@@H](CCC(=O)O)C(=O)N[C@@H](CCCCN)C(=O)N[C@H](C(=O)N[C@@H](CCCCN)C(=O)N[C@@H](CCC(=O)O)C(=O)NCC(=O)N[C@@H](CC(C)C)C(N)=O)C(C)C)C(C)C [Compound 117, [Aib8,Glu23,Val25,Glu34,Lys35,Val36,Lys37]-GLP-1-(7-37)-peptidyl-Glu-Gly-Leu amide] (H-H[Aib]EGTFTSDVSSYLEGEAVKEFIAWLVEKVKEGL-NH2)	–	–	114%	0.011 nM	–

From patent publication US20150344540A1, “NOVEL GLP-1 RECEPTOR AGONISTS WITH CHOLESTEROL EFFLUX ACTIVITY” (NOVO NORDISK A/S, priority 2012, published 2015)
